Measured values taken from patent US12692261B2, “Substituted heterocyclic compounds and therapeutic uses thereof” (Bayer Aktiengesellschaft, priority 2020, dated 2026).
Where “and” joins values, the source holds several entries; their conditions need not be identical. Identical values can stand only once. Like-named read-outs stand apart in the source and are kept apart here.

Tests used:
[1] = target: T1, wild-type Epidermal Growth Factor Receptor (EGFR) (Homo sapiens, UniProt P00533); assay: WT-EGFR Kinase Assay (TR-FRET, 2 mM ATP); format: biochemical
T1 construct: a fragment of human EGFR (amino acids R669 to A1210); made in house; host or cells: Sf9 insect cells
T1 sequence (P00533 669-1210): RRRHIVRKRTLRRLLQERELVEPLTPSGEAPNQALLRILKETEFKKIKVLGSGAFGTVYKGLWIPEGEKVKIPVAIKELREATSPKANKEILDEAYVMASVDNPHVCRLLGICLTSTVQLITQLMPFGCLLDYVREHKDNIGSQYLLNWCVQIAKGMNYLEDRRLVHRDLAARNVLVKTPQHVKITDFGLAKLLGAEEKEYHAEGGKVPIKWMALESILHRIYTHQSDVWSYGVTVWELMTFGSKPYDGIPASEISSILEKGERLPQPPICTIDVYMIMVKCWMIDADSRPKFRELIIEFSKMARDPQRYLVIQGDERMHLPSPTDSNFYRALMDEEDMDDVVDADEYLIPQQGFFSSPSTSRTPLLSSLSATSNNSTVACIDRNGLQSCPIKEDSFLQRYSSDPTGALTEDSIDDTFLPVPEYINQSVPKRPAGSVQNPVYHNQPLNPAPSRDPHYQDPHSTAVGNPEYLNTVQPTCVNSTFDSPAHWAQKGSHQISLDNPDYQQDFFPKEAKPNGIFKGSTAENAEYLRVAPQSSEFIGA
In short: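 GST-fused human EGFR fragment (R669-A1210) from Sf9 cells, typically 7.6 pg/μL, pre-incubated with compound 15 min at 22° C in Hepes pH 7.0 buffer with MgCl2, DTT and vanadate; biotinylated peptide substrate. After EDTA stop, phosphopeptide detected by TR-FRET (anti-phosphotyrosine Tb-cryptate/streptavidin-XL665), 665/620 nm emission ratio.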

[2] = target: T2, full-length human CSNK1A1 (Homo sapiens, UniProt P48729); assay: CSNK1A1 High ATP Assay (ADP-Glo, 1 mM ATP); format: biochemical; details: Table 3, read-out: CSNK1A1 high ATP assay IC50 [mol/l] (median);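 note: 30 min kinase reaction at 22 °C with 100 µM peptide substrate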
T2 construct: N-terminal Glutathion-S-Transferase (GST) and full-length human CSNK1A1; purchased Life Technologies PV4174; host or cells: baculovirus infected insect cells
T2 sequence (P48729 whole entry): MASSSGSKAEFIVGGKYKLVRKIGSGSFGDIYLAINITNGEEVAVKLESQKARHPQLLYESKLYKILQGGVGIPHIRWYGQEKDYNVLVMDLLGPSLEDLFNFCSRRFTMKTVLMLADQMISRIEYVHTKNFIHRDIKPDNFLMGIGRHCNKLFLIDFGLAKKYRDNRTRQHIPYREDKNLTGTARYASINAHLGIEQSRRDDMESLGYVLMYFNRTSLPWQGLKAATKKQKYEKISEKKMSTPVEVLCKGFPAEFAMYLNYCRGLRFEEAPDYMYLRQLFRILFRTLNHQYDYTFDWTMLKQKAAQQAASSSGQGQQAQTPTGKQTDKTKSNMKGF
In short: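 GST-tagged full-length human CSNK1A1 from baculovirus-infected insect cells (typically about 0.4 ng/μL), pre-incubated with compound 15 min at 22 °C. Reaction with biotinylated peptide biotin-Ahx-KRRRAL-pS-VASLPGL at 1 mM ATP. ADP formed read by ADP-Glo luminescence.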

[3] = EGFR Wildtyp 2 mM ATP IC50 [mol/l] (median), Table 4
[4] = read-out: EGFR Wildtyp 2 mM ATP IC50 [mol/l] (median), Table 4

| SMILES | IC50 [1, 3] [nM] | IC50 [2] | IC50 [1, 4] [nM] |
| --- | --- | --- | --- |
| O=C(Nc1cc(-c2[nH]c3c(OCC4CC4)ncnc3c2-c2ccccn2)ccn1)C(CC(F)F)c1ccc(F)cc1 (single isomer, unassigned) [Example 130, (2R or S)—N-{4-[4-(cyclopropylmethoxy)-7-(pyridin-2-yl)-5H-pyrrolo[3,2-d]pyrimidin-6-yl]pyridin-2-yl}-4,4-difluoro-2-(4-fluorophenyl)butanamide] | 6670 | 4960 nM and > 5710 nM | – |
| O=C(Nc1cc(-c2[nH]c3cccnc3c2-c2ccccn2)ccn1)C(CC(F)F)c1ccc(F)cc1 (single isomer, unassigned; (+)) [Example 11, (+)-4,4-difluoro-2-(4-fluorophenyl)-N-{4-[3-(pyridin-2-yl)-1H-pyrrolo[3,2-b]pyridin-2-yl]pyridin-2-yl}butanamide] | > 20000 | 5.35 nM | – |
| O=C(Nc1cc(-c2[nH]c3cncnc3c2-c2ccccn2)ccn1)C(CC(F)F)c1ccc(F)cc1 (single isomer, unassigned; (+)) [Example 15, (+)-4,4-difluoro-2-(4-fluorophenyl)-N-{4-[7-(pyridin-2-yl)-5H-pyrrolo[3,2-d]pyrimidin-6-yl]pyridin-2-yl}butanamide] | – | 30.9 nM | > 20000 |
| O=C(Nc1cc(-c2[nH]c3cc(F)cnc3c2-c2ccccn2)ccn1)C(CC(F)F)c1ccc(F)cc1 (single isomer, unassigned; (+)) [Example 17, (+)-4,4-difluoro-2-(4-fluorophenyl)-N-{4-[6-fluoro-3-(pyridin-2-yl)-1H-pyrrolo[3,2-b]pyridin-2-yl]pyridin-2-yl}butanamide] | > 20000 | 5.48 nM | – |
| O=C(Nc1cc(-c2[nH]c3cc(F)cnc3c2-c2ccccc2)ccn1)C(CC(F)F)c1ccc(F)cc1 (single isomer, unassigned; (+)) [Example 21, (+)-4,4-difluoro-2-(4-fluorophenyl)-N-[4-(6-fluoro-3-phenyl-1H-pyrrolo[3,2-b]pyridin-2-yl)pyridin-2-yl]butanamide] | – | 229 nM | > 20000 |
| O=C(Nc1cc(-c2[nH]c3cccnc3c2-c2ccccc2)ccn1)C(CC(F)F)c1ccc(F)cc1 (single isomer, unassigned; (+)) [Example 24, (+)-4,4-difluoro-2-(4-fluorophenyl)-N-[4-(3-phenyl-1H-pyrrolo[3,2-b]pyridin-2-yl)pyridin-2-yl]butanamide] | – | 66.6 nM | > 20000 |
| O=C(Nc1cc(-c2[nH]c3cccnc3c2-c2cccc(F)n2)ccn1)C(CC(F)F)c1ccc(F)cc1 (single isomer, unassigned; (+)) [Example 27, (+)-4,4-difluoro-2-(4-fluorophenyl)-N-{4-[3-(6-fluoropyridin-2-yl)-1H-pyrrolo[3,2-b]pyridin-2-yl]pyridin-2-yl}butanamide] | – | 1.55 nM | > 20000 |
| COc1cc(F)nc2c(-c3ccccn3)c(-c3ccnc(NC(=O)C(CC(F)F)c4ccc(F)cc4)c3)[nH]c12 (single isomer, unassigned; (+)) [Example 40, (+)-4,4-difluoro-N-{4-[5-fluoro-7-methoxy-3-(pyridin-2-yl)-1H-pyrrolo[3,2-b]pyridin-2-yl]pyridin-2-yl}-2-(4-fluorophenyl)butanamide] | > 20000 | 3.69 nM | – |
| O=C(Nc1cc(-c2[nH]c3ccc(F)nc3c2-c2ccc(F)cn2)ccn1)C(CC(F)F)c1ccc(F)cc1 (single isomer, unassigned; (+)) [Example 109, (+)-4,4-difluoro-N-{4-[5-fluoro-3-(5-fluoropyridin-2-yl)-1H-pyrrolo[3,2-b]pyridin-2-yl]pyridin-2-yl}-2-(4-fluorophenyl)butanamide] | > 20000 | 3.14 nM | – |
| O=C(Nc1cc(-c2[nH]c3cccnc3c2-c2ccccn2)ccn1)C(CC(F)F)c1ccc(F)cc1 (single isomer, unassigned; (-)) [Example 12, (−)-4,4-difluoro-2-(4-fluorophenyl)-N-{4-[3-(pyridin-2-yl)-1H-pyrrolo[3,2-b]pyridin-2-yl]pyridin-2-yl}butanamide] | – | 856 nM | > 20000 |
| O=C(Nc1cc(-c2[nH]c3cncnc3c2-c2ccccn2)ccn1)C(CC(F)F)c1ccc(F)cc1 (single isomer, unassigned; (-)) [Example 14, (−)-4,4-difluoro-2-(4-fluorophenyl)-N-{4-[7-(pyridin-2-yl)-5H-pyrrolo[3,2-d]pyrimidin-6-yl]pyridin-2-yl}butanamide] | > 20000 | 2140 nM | – |
| O=C(Nc1cc(-c2[nH]c3cc(F)cnc3c2-c2ccccn2)ccn1)C(CC(F)F)c1ccc(F)cc1 (single isomer, unassigned; (-)) [Example 18, (−)-4,4-difluoro-2-(4-fluorophenyl)-N-{4-[6-fluoro-3-(pyridin-2-yl)-1H-pyrrolo[3,2-b]pyridin-2-yl]pyridin-2-yl}butanamide] | – | 542 nM | > 20000 |
| O=C(Nc1cc(-c2[nH]c3cc(F)cnc3c2-c2ccccc2)ccn1)C(CC(F)F)c1ccc(F)cc1 (single isomer, unassigned; (-)) [Example 20, (−)-4,4-difluoro-2-(4-fluorophenyl)-N-[4-(6-fluoro-3-phenyl-1H-pyrrolo[3,2-b]pyridin-2-yl)pyridin-2-yl]butanamide] | > 20000 | 10100 nM | – |
| O=C(Nc1cc(-c2[nH]c3cccnc3c2-c2ccccc2)ccn1)C(CC(F)F)c1ccc(F)cc1 (single isomer, unassigned; (-)) [Example 23, (−)-4,4-difluoro-2-(4-fluorophenyl)-N-[4-(3-phenyl-1H-pyrrolo[3,2-b]pyridin-2-yl)pyridin-2-yl]butanamide] | > 20000 | 3740 nM | – |
| O=C(Nc1cc(-c2[nH]c3cccnc3c2-c2cccc(F)n2)ccn1)C(CC(F)F)c1ccc(F)cc1 (single isomer, unassigned; (-)) [Example 26, (−)-4,4-difluoro-2-(4-fluorophenyl)-N-{4-[3-(6-fluoropyridin-2-yl)-1H-pyrrolo[3,2-b]pyridin-2-yl]pyridin-2-yl}butanamide] | > 20000 | 15.8 nM | – |
| Cc1cc(F)nc2c(-c3ccccn3)c(-c3ccnc(NC(=O)C(CC(F)F)c4ccc(F)cc4)c3)[nH]c12 (single isomer, unassigned; (-)) [Example 38, (−)-4,4-difluoro-N-{4-[5-fluoro-7-methyl-3-(pyridin-2-yl)-1H-pyrrolo[3,2-b]pyridin-2-yl]pyridin-2-yl}-2-(4-fluorophenyl)butanamide] | > 20000 | 2.26 nM | – |
| COc1cc(F)nc2c(-c3ccccn3)c(-c3ccnc(NC(=O)C(CC(F)F)c4ccc(F)cc4)c3)[nH]c12 (single isomer, unassigned; (-)) [Example 41, (−)-4,4-difluoro-N-{4-[5-fluoro-7-methoxy-3-(pyridin-2-yl)-1H-pyrrolo[3,2-b]pyridin-2-yl]pyridin-2-yl}-2-(4-fluorophenyl)butanamide] | – | 3.37 nM | > 20000 |
| O=C(Nc1cc(-c2[nH]c3ccc(F)nc3c2-c2ccc(F)cn2)ccn1)C(CC(F)F)c1ccc(F)cc1 (single isomer, unassigned; (-)) [Example 110, (−)-4,4-difluoro-N-{4-[5-fluoro-3-(5-fluoropyridin-2-yl)-1H-pyrrolo[3,2-b]pyridin-2-yl]pyridin-2-yl}-2-(4-fluorophenyl)butanamide] | – | 47.6 nM | > 20000 |
| O=C(Nc1cc(-c2[nH]c3c(OC4CC4)cc(F)nc3c2-c2ccccn2)ccn1)C(CC(F)F)c1ccc(F)cc1 (stereo not shown) [Example 45] | > 20000 | 22.3 nM | – |
| COc1cnc2c(-c3ccccn3)c(-c3ccnc(NC(=O)C(CC(F)F)c4ccc(F)cc4)c3)[nH]c2n1 (stereo not shown) [Example 101, 4,4-difluoro-2-(4-fluorophenyl)-N-{4-[3-methoxy-7-(pyridin-2-yl)-5H-pyrrolo[2,3-b]pyrazin-6-yl]pyridin-2-yl}butanamide] | > 20000 | 4.82 nM | – |
| O=C(Nc1cc(-c2[nH]c3cccnc3c2-c2ccccn2)ccn1)C(CCO)c1ccc(F)cc1 (stereo not shown) [Example 104, 2-(4-fluorophenyl)-4-hydroxy-N-(4-(3-(pyridin-2-yl)-1H-pyrrolo[3,2-b]pyridin-2-yl)pyridin-2-yl)-butanamide] | > 20000 | 6.29 nM | – |
| O=C(Nc1cc(-c2[nH]c3nc(OC(F)F)cnc3c2-c2ccccn2)ccn1)C(CC(F)F)c1ccc(F)cc1 (stereo not shown) [Example 105, N-{4-[3-(difluoromethoxy)-7-(pyridin-2-yl)-5H-pyrrolo[2,3-b]pyrazin-6-yl]pyridin-2-yl}-4,4-difluoro-2-(4-fluorophenyl)butanamide] | > 20000 | 10.9 nM | – |
| COc1ncnc2c(-c3ccccn3)c(-c3ccnc(NC(=O)C(CC(F)F)c4ccc(F)cc4)c3)[nH]c12 (stereo not shown) [Example 113, 4,4-difluoro-2-(4-fluorophenyl)-N-{4-[4-methoxy-7-(pyridin-2-yl)-5H-pyrrolo[3,2-d]pyrimidin-6-yl]pyridin-2-yl}butanamide] | > 20000 | 157 nM | – |
